Assay results from patent US8871753B2, “Macrocyclic compounds and their use as kinase inhibitors” (Incyte Corporation, priority 2008, dated 2014).
Structures can show the parent of a compound that is named as a salt. Where two headings read alike, the source gives them in different places.

Columns and labels:
Assay type in all cases: biochemical
TYK2 = TYK2 (Homo sapiens, UniProt P29597); assay: TYK2 kinase inhibition (Table A1)
[1] = molecular target: T1, human JAK3 (a.a. 781-1124) (Homo sapiens, UniProt P52333); assay: In vitro JAK kinase assay (HTRF, phosphorylation of a biotinylated peptide), JAK3
T1 construct: JAK3 (a.a. 781-1124); His tag (N); made in house; host or cells: insect cells (baculovirus)
T1 sequence (P52333 781-1124): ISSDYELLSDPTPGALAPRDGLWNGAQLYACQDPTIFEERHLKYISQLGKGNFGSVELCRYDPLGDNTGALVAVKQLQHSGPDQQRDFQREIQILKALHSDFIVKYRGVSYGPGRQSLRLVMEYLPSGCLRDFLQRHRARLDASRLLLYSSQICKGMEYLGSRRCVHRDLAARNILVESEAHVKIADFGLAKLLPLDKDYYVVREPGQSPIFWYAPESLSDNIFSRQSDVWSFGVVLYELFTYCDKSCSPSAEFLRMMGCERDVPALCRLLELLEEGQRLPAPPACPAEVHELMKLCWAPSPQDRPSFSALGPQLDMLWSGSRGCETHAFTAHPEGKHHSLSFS
In short: (§1)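 Phosphorylation of a biotinylated peptide by the JAK kinase domain, detected by HTRF with Eu-Py20 and SA-APC. ATP was 90 μM for JAK1, 30 μM for JAK2 and 3 μM for JAK3. Reactions ran 1 h at room temperature and were stopped with EDTA, followed by 40 min antibody binding.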

[2] = molecular target: T2, human JAK1 (a.a. 837-1142) (Homo sapiens, UniProt P23458); assay: In vitro JAK kinase assay (HTRF, phosphorylation of a biotinylated peptide), JAK1; conditions: read-out: JAK1 IC50
T2 construct: human JAK1 (a.a. 837-1142); His tag (N); made in house; host or cells: insect cells (baculovirus)
T2 sequence (P23458 849-1154): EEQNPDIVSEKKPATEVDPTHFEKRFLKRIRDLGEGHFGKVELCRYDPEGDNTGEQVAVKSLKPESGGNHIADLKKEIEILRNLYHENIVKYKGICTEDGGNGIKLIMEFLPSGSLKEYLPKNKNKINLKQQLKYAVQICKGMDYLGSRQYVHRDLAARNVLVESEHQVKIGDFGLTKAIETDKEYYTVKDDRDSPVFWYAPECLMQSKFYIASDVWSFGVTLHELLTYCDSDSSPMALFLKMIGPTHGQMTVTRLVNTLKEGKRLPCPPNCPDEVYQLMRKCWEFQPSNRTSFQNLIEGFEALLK
In short: as §1

[3] = molecular target: T3, human JAK2 (a.a. 828-1132) (Homo sapiens, UniProt O60674); assay: In vitro JAK kinase assay (HTRF, phosphorylation of a biotinylated peptide), JAK2
T3 construct: JAK2 (a.a. 828-1132); His tag (N); made in house; host or cells: insect cells (baculovirus)
T3 sequence (O60674 828-1132): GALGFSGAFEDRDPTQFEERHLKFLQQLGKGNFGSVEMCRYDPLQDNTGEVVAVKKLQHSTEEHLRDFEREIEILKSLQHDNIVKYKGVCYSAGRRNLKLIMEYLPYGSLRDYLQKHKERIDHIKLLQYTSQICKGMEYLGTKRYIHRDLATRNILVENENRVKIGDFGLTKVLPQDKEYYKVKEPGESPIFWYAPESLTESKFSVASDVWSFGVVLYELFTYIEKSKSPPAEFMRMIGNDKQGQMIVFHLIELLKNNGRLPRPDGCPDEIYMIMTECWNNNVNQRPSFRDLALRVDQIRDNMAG
In short: as §1

Chain of TYK2 (P29597 whole entry): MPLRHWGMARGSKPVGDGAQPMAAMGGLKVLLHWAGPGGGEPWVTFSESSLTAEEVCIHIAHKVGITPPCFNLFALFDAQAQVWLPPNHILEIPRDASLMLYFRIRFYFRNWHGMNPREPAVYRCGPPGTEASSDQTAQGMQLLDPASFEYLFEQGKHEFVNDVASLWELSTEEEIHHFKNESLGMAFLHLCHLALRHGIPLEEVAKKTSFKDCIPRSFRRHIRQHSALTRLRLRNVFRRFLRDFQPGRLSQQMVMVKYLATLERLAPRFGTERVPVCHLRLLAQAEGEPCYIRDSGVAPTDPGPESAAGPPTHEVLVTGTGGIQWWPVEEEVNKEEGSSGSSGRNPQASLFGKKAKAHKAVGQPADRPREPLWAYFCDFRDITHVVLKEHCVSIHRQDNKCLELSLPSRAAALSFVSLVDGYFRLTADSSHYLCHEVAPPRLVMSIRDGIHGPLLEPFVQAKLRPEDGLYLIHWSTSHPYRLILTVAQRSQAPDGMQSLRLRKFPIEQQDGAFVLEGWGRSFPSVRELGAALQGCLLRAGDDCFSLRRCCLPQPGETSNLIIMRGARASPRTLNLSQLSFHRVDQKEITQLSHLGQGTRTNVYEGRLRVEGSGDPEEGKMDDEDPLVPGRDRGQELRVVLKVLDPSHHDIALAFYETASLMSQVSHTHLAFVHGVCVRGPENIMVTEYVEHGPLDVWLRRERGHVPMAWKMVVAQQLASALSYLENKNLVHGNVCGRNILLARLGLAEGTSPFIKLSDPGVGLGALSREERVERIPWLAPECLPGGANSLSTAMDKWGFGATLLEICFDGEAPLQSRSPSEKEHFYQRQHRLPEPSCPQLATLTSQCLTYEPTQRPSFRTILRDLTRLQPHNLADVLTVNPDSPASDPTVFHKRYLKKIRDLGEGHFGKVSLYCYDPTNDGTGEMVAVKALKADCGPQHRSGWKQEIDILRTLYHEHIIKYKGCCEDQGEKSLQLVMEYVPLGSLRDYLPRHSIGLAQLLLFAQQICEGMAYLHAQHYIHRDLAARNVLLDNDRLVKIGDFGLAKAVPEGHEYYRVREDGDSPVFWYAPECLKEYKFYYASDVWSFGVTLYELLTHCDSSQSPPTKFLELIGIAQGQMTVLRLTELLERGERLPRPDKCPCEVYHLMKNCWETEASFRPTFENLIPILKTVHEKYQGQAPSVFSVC

Structure (SMILES) | IC50 (TYK2; Table D1) [nM] | IC50 ([1]; Table D1) [nM] | IC50 ([2]; Table D1) [nM] | IC50 ([3]; Table D1) [nM] | other results
N#Cc1ccc(NC(=O)N2CCC(C(=O)Nc3ccc4cc3CCc3cccc(c3)Nc3ncc(Cl)c(n3)N4)CC2)cc1 [Example A37, N(4)-[6-Chloro-2,4,8,22-tetraazatetracyclo[14.3.1.1(3,7).1(9,13)]docosa-1(20),3(22),4,6,9(21),10,12,16,18-nonaen-12-yl]-N(1)-(4-cyanophenyl)piperidine-1,4-dicarboxamide trifluoroacetate] |  |  |  |  | IC50 (TYK2): 21 nM; IC50 ([1]; method AA1 (3 μM ATP) or AA2 (1000 μM ATP), not stated per value): 24 nM; IC50 ([2]; method AA1 (90 μM ATP) or AA2 (1000 μM ATP), not stated per value): 9 nM; IC50 ([3]; method AA1 (30 μM ATP) or AA2 (1000 μM ATP), not stated per value): 11 nM
O=C(Cc1coc2ccccc12)Nc1ccc2cc1CCc1cccc(c1)Nc1ncc(Cl)c(n1)N2 [Example C47, 2-(1-Benzofuran-3-yl)-N-[6-chloro-2,4,8,22-tetraazatetracyclo[14.3.1.1(3,7).1(9,13)]docosa-1(20),3(22),4,6,9(21),10,12,16,18-nonaen-12-yl]acetamide trifluoroacetate] |  |  |  |  | IC50 (TYK2): 300 nM; IC50 [1]: 1140 nM; IC50 [2]: 67 nM; IC50 [3]: 134 nM
N#Cc1ccc(N2CCN(C(=O)COc3ccc4cc3CCc3cncc(c3)Nc3ncc(Cl)c(n3)N4)CC2)cc1 [Example D236, 4-[4-({[6-Chloro-2,4,8,18,22-pentaazatetracyclo[14.3.1.1(3,7).1(9,13)]docosa-1(20),3(22),4,6,9(21),10,12,16,18-nonaen-12-yl]oxy}acetyl)piperazin-1-yl]benzonitrile tris(trifluoroacetate)] | > 400 | > 400 | 90 | 288 | 
O=C(Nc1cccc(C(F)(F)F)c1)N1CCN(c2ccc3cc2CCc2cccc(c2)Nc2ncc(Cl)c(n2)N3)CC1 [Example D91, 4-[6-Chloro-2,4,8,22-tetraazatetracyclo[14.3.1.1(3,7).1(9,13)]docosa-1(20),3(22),4,6,9(21),10,12,16,18-nonaen-12-yl]-N-[3-(trifluoromethyl)phenyl]piperazine-1-carboxamide bis(trifluoroacetate)] | 156 | 133 | 146 | 32 | 
CC(=O)N1CCC[C@@H](CC(=O)Nc2ccc3cc2CCc2cncc(c2)Nc2ncc(Cl)c(n2)N3)C1 [Example D204, 2-[(3S)-1-Acetylpiperidin-3-yl]-N-[6-chloro-2,4,8,18,22-pentaazatetracyclo[14.3.1.1(3,7).1(9,13)]docosa-1(20),3(22),4,6,9(21),10,12,16,18-nonaen-12-yl]acetamide bis(trifluoroacetate)] | 12 | 101 | 7.2 | 12 | 
Cc1cc(C(=O)N2CCC(Nc3ccc4cc3CCc3cncc(c3)Nc3ncc(Cl)c(n3)N4)CC2)no1 [Example D160, 6-Chloro-N-{1-[(5-methylisoxazol-3-yl)carbonyl]piperidin-4-yl}-2,4,8,18,22-pentaazatetracyclo[14.3.1.1(3,7).1(9,13)]docosa-1(20),3(22),4,6,9(21),10,12,16,18-nonaen-12-amine tris(trifluoroacetate)] | > 400 | > 400 | 244 | 341 | 
O=C(Nc1ccc2cc1CCc1cccc(c1)Nc1ncc(Cl)c(n1)N2)N1CCCC1 [Example B81, N-[6-Chloro-2,4,8,22-tetraazatetracyclo[14.3.1.1(3,7).1(9,13)]docosa-1(20), 3(22),4,6,9(21),10,12,16,18-nonaen-12-yl]pyrrolidine-1-carboxamide trifluoroacetate] |  |  |  |  | IC50 (TYK2; Table B1): 221 nM; IC50 ([1]; Table B1): 475 nM; IC50 ([2]; Table B1): 109 nM; IC50 ([3]; Table B1): 123 nM
CC(=O)N1CCC[C@H](CC(=O)Nc2ccc3cc2CCc2cncc(c2)Nc2ncc(Cl)c(n2)N3)C1 [Example D205, 2-[(3R)-1-Acetylpiperidin-3-yl]-N-[6-chloro-2,4,8,18,22-pentaazatetracyclo[14.3.1.1(3,7).1(9,13)]docosa-1(20),3(22),4,6,9(21),10,12,16,18-nonaen-12-yl]acetamide bis(trifluoroacetate)] | 25 | 107 | 7.1 | 15 | 
N#Cc1ccccc1S(=O)(=O)N1CCC(CCOc2ccc3cc2CCc2cncc(c2)Nc2ncc(Cl)c(n2)N3)CC1 [Example D163, 2-{[4-(2-{[6-Chloro-2,4,8,18,22-pentaazatetracyclo[14.3.1.1(3,7).1(9,13)]docosa-1(20),3(22),4,6,9(21),10,12,16,18-nonaen-12-yl]oxy}ethyl)piperidin-1-yl]sulfonyl}benzonitrilebis(trifluoroacetate)] | > 400 | > 400 | 190 | > 400 | 
Cc1ncsc1CCC(=O)Nc1ccc2cc1CCc1cccc(c1)Nc1ncc(Cl)c(n1)N2 [Example C48, N-[6-Chloro-2,4,8,22-tetraazatetracyclo[14.3.1.1(3,7).1(9,13)]docosa-1(20),3(22),4,6,9(21),10,12,16,18-nonaen-12-yl]-3-(4-methyl-1,3-thiazol-5-yl)propanamide trifluoroacetate] |  |  |  |  | IC50 (TYK2): 647 nM; IC50 [1]: 1150 nM; IC50 [2]: 52 nM; IC50 [3]: 74 nM
O=C(Nc1ccc(C(F)(F)F)cc1)N1CCN(c2ccc3cc2CCc2cccc(c2)Nc2ncc(Cl)c(n2)N3)CC1 [Example D90, 4-[6-Chloro-2,4,8,22-tetraazatetracyclo[14.3.1.1(3,7).1(9,13)]docosa-1(20),3(22),4,6,9(21),10,12,16,18-nonaen-12-yl]-N-[4-(trifluoromethyl)phenyl]piperazine-1-carboxamide bis(trifluoroacetate)] | 70 | 108 | 127 | 23 | 
O=C(COc1ccc2cc1CCc1cncc(c1)Nc1ncc(Cl)c(n1)N2)N1CCC(c2cc(-c3cccs3)[nH]n2)CC1 [Example D257, 6-Chloro-12-(2-oxo-2-{4-[5-(2-thienyl)-1H-pyrazol-3-yl]piperidin-1-yl}ethoxy)-2,4,8,18,22-pentaazatetracyclo[14.3.1.1(3,7).1(9,13)]docosa-1(20),3(22),4,6,9(21),10,12,16,18-nonaene tris(trifluoroacetate)] | > 400 | > 400 | 63 | 112 | 

Further lines, with some results ahead:

IC50 (TYK2; Table D1) [nM] | IC50 ([1]; Table D1) [nM] | IC50 ([2]; Table D1) [nM] | IC50 ([3]; Table D1) [nM] | Structure (SMILES) | other results
> 400 | > 400 | 34 | 255 | O=C(Nc1ccc(F)cc1)N1CCC(CCOc2ccc3cc2CCc2cncc(c2)Nc2ncc(Cl)c(n2)N3)CC1 [Example D168, 4-(2-{[6-Chloro-2,4,8,18,22-pentaazatetracyclo[14.3.1.1(3,7).1(9,13)]docosa-1(20),3(22),4,6,9(21),10,12,16,18-nonaen-12-yl]oxy}ethyl)-N-(4-fluorophenyl)piperidine-1-carboxamide bis(trifluoroacetate)] | 
> 400 | > 400 | 255 | > 400 | O=C(COc1ccc2cc1CCc1cncc(c1)Nc1ncc(Cl)c(n1)N2)N1CCN(c2cccc(Cl)n2)CC1 [Example D240, 6-Chloro-12-{2-[4-(6-chloropyridin-2-yl)piperazin-1-yl]-2-oxoethoxy}-2,4,8,18,22-pentaazatetracyclo[14.3.1.1(3,7).1(9,13)]docosa-1(20),3(22),4,6,9(21),10,12,16,18-nonaene tris(trifluoroacetate)] | 
195 | 149 | 112 | 49 | O=C(c1ccc(C(F)(F)F)cc1)N1CCN(c2ccc3cc2CCc2cccc(c2)Nc2ncc(Cl)c(n2)N3)CC1 [Example D96, 6-Chloro-12-{4-[4-(trifluoromethyl)benzoyl]piperazin-1-yl}-2,4,8,22-tetraazatetracyclo[14.3.1.1(3,7).1(9,13)]docosa-1(20),3(22),4,6,9(21),10,12,16,18-nonaene bis(trifluoroacetate)] | 
> 400 | > 400 | 300 | 126 | CN1c2cccc(c2)CCc2cncc(c2)Nc2nccc1n2 [Example D224, 8-Methyl-2,4,8,18,22-pentaazatetracyclo[14.3.1.1(3,7).1(9,13)]docosa-1(20),3(22),4,6,9(21),10,12,16,18-nonaene bis(trifluoroacetate)] | 
> 400 | > 400 | 25 | 47 | O=C(COc1ccc2cc1CCc1cncc(c1)Nc1ncc(Cl)c(n1)N2)N1CCN(c2nccs2)CC1 [Example D230, 6-Chloro-12-{2-oxo-2-[4-(1,3-thiazol-2-yl)piperazin-1-yl]ethoxy}-2,4,8,18,22-pentaazatetracyclo[14.3.1.1(3,7).1(9,13)]docosa-1(20),3(22),4,6,9(21),10,12,16,18-nonaene tris(trifluoroacetate)] | 
23 | 144 | 5.8 | 46 | O=C(C[C@@H]1CCCNC1)Nc1ccc2cc1CCc1cncc(c1)Nc1ncc(Cl)c(n1)N2 [Example D194, N-[6-Chloro-2,4,8,18,22-pentaazatetracyclo[14.3.1.1(3,7).1(9,13)]docosa-1(20),3(22),4,6,9(21),10,12,16,18-nonaen-12-yl]-2-[(3S)-piperidin-3-yl]acetamidetris(trifluoroacetate)] | 
